Assay results: ChEMBL document CHEMBL5506025, “Discovery of LLC0424 as a Potent and Selective in Vivo NSD2 PROTAC Degrader” (J Med Chem, 2024)
Activity calls are given as the source filed them. The rule behind the calls is not given here.

What was measured:
[1] = target: T1, Histone-lysine N-methyltransferase NSD2 (Homo sapiens, UniProt O96028); experiment: Induction of NSD2 degradation in HEK293FT cells measured after 48 hrs; type: cell-based
T1 sequence (O96028 whole entry): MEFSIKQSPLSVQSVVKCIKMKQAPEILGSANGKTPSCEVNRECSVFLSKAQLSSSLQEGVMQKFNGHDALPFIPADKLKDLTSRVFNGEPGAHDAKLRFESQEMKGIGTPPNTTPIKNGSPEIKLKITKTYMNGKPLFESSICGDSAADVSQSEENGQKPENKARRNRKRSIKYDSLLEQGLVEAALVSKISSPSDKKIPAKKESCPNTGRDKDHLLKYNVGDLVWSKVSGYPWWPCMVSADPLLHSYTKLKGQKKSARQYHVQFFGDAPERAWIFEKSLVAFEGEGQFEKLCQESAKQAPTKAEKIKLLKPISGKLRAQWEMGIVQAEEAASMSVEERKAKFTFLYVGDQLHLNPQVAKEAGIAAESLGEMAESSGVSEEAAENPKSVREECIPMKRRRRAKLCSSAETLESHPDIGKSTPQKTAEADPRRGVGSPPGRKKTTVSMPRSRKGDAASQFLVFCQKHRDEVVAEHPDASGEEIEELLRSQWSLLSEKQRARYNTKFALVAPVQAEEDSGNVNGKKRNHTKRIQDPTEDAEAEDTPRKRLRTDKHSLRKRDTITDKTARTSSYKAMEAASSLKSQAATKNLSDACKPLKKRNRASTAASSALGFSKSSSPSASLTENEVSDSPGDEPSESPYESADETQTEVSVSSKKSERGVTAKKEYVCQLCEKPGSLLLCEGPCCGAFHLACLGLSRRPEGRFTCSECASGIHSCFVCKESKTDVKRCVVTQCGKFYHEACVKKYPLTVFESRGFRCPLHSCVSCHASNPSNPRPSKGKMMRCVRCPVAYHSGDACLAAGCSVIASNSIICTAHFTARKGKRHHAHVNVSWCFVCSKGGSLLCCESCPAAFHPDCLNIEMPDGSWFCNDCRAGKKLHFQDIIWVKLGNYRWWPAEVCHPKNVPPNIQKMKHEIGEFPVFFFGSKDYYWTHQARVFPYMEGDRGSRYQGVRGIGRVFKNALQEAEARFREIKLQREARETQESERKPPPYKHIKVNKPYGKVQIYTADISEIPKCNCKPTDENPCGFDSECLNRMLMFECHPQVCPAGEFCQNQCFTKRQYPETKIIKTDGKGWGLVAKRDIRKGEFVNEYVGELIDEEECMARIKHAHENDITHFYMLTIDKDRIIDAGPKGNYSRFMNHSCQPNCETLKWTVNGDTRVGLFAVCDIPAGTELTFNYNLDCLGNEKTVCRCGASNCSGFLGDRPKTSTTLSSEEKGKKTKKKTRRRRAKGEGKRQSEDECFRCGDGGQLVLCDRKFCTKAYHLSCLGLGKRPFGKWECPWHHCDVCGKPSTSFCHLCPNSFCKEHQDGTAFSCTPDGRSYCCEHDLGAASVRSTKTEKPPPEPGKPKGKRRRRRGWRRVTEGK

[2] = target: T2, Protein cereblon/Histone-lysine N-methyltransferase NSD2 (Homo sapiens) (UniProt O96028+Q96SW2); experiment: PROTAC activity at CRBN/NSD2 in human RPMI 8402 cells assessed as induction of NSD2 degradation at 2 uM measured after 12 to 24 hrs by immunoblot analysis; type: cell-based; conditions: time 12-24 hrs
[3] = target: T2, Protein cereblon/Histone-lysine N-methyltransferase NSD2 (Homo sapiens); experiment: PROTAC activity at CRBN/NSD2 in human RPMI 8402 cells assessed as induction of NSD2 degradation at 0.5 to 2 uM measured after 24 hrs by immunoblot analysis; type: cell-based; conditions: dose 0.5-2 µM
[4] = target: T2, Protein cereblon/Histone-lysine N-methyltransferase NSD2 (Homo sapiens); experiment: PROTAC activity at CRBN/NSD2 in human SEM cells assessed as induction of NSD2 degradation at 2 uM measured after 12 to 24 hrs by immunoblot analysis; type: cell-based; conditions: time 12-24 hrs
[5] = target: T2, Protein cereblon/Histone-lysine N-methyltransferase NSD2 (Homo sapiens); experiment: PROTAC activity at CRBN/NSD2 in human SEM cells assessed as induction of NSD2 degradation at 0.5 to 2 uM measured after 24 hrs by immunoblot analysis; type: cell-based; conditions: dose 0.5-2 µM
RPMI 8402 = experiment: Inhibition of colony formation in human RPMI 8402 cells at 2 uM administered every three days for 30 days by iodonitrotetrazolium chloride staining based microscopy analysis; type: functional, cell-based; conditions: time 30.0 day
[6] = target: T2, Protein cereblon/Histone-lysine N-methyltransferase NSD2 (Homo sapiens); experiment: PROTAC activity at CRBN/NSD2 in human SEM cells assessed as induction of NSD2 degradation at 2 uM measured upto 24 hrs by immunoblot analysis; type: cell-based
[7] = target: Protein cereblon/Eukaryotic peptide chain release factor GTP-binding subunit ERF3A (Homo sapiens) (UniProt Q96SW2+P15170); experiment: PROTAC activity at CRBN/GSPT1 in human SEM cells assessed as decrease in GSPT1 level at 2 uM measured upto 24 hrs by immunoblot analysis; type: cell-based
Sequence of Protein cereblon/Eukaryotic peptide chain release factor GTP-binding subunit ERF3A (Homo sapiens) (P15170 whole entry, looked up): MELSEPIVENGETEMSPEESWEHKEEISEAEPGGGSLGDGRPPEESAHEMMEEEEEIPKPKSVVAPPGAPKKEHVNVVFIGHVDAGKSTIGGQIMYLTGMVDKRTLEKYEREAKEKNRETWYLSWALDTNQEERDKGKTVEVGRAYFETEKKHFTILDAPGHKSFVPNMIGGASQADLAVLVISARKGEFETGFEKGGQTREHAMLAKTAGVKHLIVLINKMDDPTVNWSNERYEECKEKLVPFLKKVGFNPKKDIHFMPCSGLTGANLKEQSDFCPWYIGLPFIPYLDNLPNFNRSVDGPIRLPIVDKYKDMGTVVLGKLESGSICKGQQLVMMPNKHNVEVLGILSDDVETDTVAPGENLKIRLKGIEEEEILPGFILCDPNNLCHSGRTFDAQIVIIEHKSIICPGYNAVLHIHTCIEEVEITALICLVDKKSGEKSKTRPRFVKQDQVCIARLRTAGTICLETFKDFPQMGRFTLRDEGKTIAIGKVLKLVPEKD
Sequence of Protein cereblon/Eukaryotic peptide chain release factor GTP-binding subunit ERF3A (Homo sapiens) (Q96SW2 whole entry, looked up): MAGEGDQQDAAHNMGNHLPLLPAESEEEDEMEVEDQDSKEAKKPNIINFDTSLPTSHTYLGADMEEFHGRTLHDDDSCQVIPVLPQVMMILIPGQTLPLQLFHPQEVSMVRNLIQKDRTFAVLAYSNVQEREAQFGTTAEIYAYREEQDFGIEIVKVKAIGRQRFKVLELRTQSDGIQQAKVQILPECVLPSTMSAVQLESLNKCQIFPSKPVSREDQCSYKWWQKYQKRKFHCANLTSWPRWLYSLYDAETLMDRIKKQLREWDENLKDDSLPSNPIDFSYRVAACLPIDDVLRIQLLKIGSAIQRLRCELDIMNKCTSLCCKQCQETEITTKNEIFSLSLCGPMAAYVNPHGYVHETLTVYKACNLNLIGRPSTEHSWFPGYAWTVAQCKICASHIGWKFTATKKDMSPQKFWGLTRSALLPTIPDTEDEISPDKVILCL

T2 sequence (Q96SW2 whole entry, looked up, one chain of several): as the sequence (Q96SW2 whole entry, looked up) above

DC50 [1]	Activity [2]	Activity [3]	Activity [4]	Activity [5]	Activity [6]	Activity [7]	SMILES	inhibition (RPMI 8402)
5.2 µM	inactive	inactive	inactive	inactive	–	–	O=C(CNc1cccc2c1C(=O)N(C1CCC(=O)NC1=O)C2=O)NCCCOc1ccc(NC(=O)c2ccc(CN(C(=O)c3ccc4c(c3)OCC(=O)N4)C3CC3)cc2)nc1 (stereo unspecified)	–
–	inactive	inactive	inactive	inactive	–	–	CN1C(=O)CCC(N2C(=O)c3ccc(N4CCC(NC(=O)c5ccc(NC(=O)c6ccc(CN(C(=O)c7ccc8c(c7)OCC(=O)N8)C7CC7)cc6)cc5)CC4)cc3C2=O)C1=O (stereo unspecified)	inactive
–	inactive	inactive	inactive	inactive	–	–	NCCCCCCNC(=O)c1ccc(NC(=O)c2ccc(CN(C(=O)c3ccc4c(c3)OCC(=O)N4)C3CC3)cc2)cc1	–
–	–	–	–	–	inactive	Active	CC(C)N(Cc1ccc(C(=O)Nc2ccc(C(=O)NC3CCN(c4ccc5c(c4)C(=O)N(C4CCC(=O)NC4=O)C5=O)CC3)cc2)cc1)C(=O)c1ccc2c(c1)OCC(=O)N2 (stereo unspecified)	–
